Experimental data reported in patent publication US12281149B2, “Modulators of G-protein coupled receptors” (priority 2021, dated 2025).
*1 amine or outer side, *2 acyl side, *3 side chain or, on linkers, in order; H or OH if unused. Where a SMILES comes first, the peptide text is derived from it. Side-chain parts run from the residue outwards. [ ]: non-standard residue; d: D form. The star is where a group is joined. Isobutyryl(2-(3-CN-5-F-Ph)) = CC(C)(C(=O)*)c1cc(F)cc(C#N)c1; C20 diacid = O=C(O)CCCCCCCCCCCCCCCCCCC(=O)*; X74 = CC(C)(C(=O)*)c1cc(F)cc(C(F)(F)F)c1; γGlu = O=C(O)[C@H](CCC(=O)[*:2])N[*:1]; X71 = COc1cc(F)cc(C(C)(C)C(=O)*)c1; X38 = CC(C)(C(=O)*)c1cc(O)cc(F)c1; β3hE = N[C@@H](CCC(=O)O)CC(=O)O; β3hD = NC(CC(=O)O)CC(=O)O; AEEA = NCCOCCOCC(=O)O; Aib = CC(C)(N)C(=O)O; βAla = NCCC(=O)O

Key:
Type in all cases: cell-based
GLP-1 receptor [1] = molecular target: T1, GLP-1 receptor (Homo sapiens, UniProt P43220); assay: PathHunter β-arrestin assay, GLP-1 receptor; parameters: host or cells: PathHunter CHO-K1 GLP1R β-Arrestin Cell Line; details: β-arrestin-2 recruitment, PathHunter CHO-K1 GLP1R β-Arrestin Cell Line, 90 min at 37° C.; normalized to GLP-1; read-out: GLP-1R β Arrestin EC50
GIP receptor [2] = molecular target: T2, GIP receptor (Homo sapiens, UniProt P48546); assay: HitHunter cAMP assay, GIP receptor; details: for EC50: CHO cells stably expressing GIP receptor, cAMP accumulation, 30 min, read-out: EC50 GIP-1R; for Emax: CHO cells, cAMP, normalized to maximum signal from GIP (high) and DMSO (low), read-out: Emax GIP-1R
T2 sequence (P48546 22-466): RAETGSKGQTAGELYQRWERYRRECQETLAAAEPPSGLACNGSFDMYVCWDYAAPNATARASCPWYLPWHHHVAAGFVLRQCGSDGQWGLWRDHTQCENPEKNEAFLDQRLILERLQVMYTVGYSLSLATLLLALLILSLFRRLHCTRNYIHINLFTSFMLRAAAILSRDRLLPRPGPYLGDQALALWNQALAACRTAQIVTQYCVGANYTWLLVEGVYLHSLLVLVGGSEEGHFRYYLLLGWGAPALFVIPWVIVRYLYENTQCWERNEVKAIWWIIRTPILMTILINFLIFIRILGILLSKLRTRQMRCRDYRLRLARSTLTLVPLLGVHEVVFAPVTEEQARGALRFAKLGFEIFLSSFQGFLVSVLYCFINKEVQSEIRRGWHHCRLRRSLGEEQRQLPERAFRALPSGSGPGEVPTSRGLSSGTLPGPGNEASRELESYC

GIP receptor [3] = molecular target: T2, GIP receptor; assay: PathHunter β-arrestin assay, GIP receptor; parameters: host or cells: PathHunter CHO-K1 GIPR β-Arrestin Cell Line; details: β-arrestin-2 recruitment, PathHunter CHO-K1 GIPR β-Arrestin Cell Line, 90 min at 37° C.; normalized to GIP; read-out: GIPR β Arrestin EC50
GLP-1 receptor [4] = molecular target: T1, GLP-1 receptor; assay: HitHunter cAMP assay, GLP-1 receptor; details: for EC50: CHO cells stably expressing human GLP-1 receptor, cAMP accumulation, 30 min, read-out: EC50 GLP-1R; for Emax: CHO cells, cAMP, normalized to maximum signal from GLP-1 (high) and DMSO (low), read-out: Emax GLP-1R

T1 sequence (P43220 24-463): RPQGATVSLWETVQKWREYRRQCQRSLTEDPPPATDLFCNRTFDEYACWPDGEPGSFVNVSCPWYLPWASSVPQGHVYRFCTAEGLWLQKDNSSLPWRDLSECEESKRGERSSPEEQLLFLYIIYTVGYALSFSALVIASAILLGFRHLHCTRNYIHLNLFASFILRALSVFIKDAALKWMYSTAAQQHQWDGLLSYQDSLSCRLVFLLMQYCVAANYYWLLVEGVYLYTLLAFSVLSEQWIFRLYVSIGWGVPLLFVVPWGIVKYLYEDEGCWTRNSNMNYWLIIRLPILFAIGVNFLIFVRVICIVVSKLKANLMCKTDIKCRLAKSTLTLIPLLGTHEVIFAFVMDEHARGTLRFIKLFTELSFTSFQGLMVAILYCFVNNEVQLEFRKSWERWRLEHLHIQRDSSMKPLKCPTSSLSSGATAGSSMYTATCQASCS

CC[C@H](C)[C@H](NC(=O)[C@H](CC(C)C)NC(=O)[C@H](Cc1c[nH]c2ccccc12)NC(=O)[C@H](CCC(N)=O)NC(=O)[C@@H](NC(=O)[C@H](Cc1ccccc1)NC(=O)[C@H](C)NC(=O)[C@H](CCCCNC(=O)COCCOCCNC(=O)COCCOCCNC(=O)CC[C@H](NC(=O)CCCCCCCCCCCCCCCCCCC(=O)O)C(=O)O)NC(=O)[C@H](CCC(N)=O)NC(=O)[C@H](C)NC(=O)[C@@H](NC(=O)[C@H](CCCCN)NC(=O)[C@H](CC(=O)O)NC(=O)[C@H](CC(C)C)NC(=O)C(C)(C)NC(=O)[C@@H](NC(=O)[C@H](CO)NC(=O)[C@H](Cc1ccc(O)cc1)NC(=O)[C@H](CC(=O)O)NC(=O)[C@H](CO)NC(=O)[C@@H](NC(=O)[C@H](Cc1ccccc1)NC(=O)[C@@H](NC(=O)CNC(=O)C[C@H](CC(=O)O)NC(=O)CCNC(=O)C(C)(C)c1cc(F)cc(C#N)c1)[C@@H](C)O)[C@@H](C)O)[C@@H](C)CC)[C@@H](C)CC)C(C)C)C(=O)N[C@@H](C)C(=O)NCC(=O)NCC(=O)N1CCC[C@H]1C(=O)N[C@@H](CO)C(=O)N[C@@H](CO)C(=O)NCC(=O)N[C@@H](C)C(=O)N1CCC[C@H]1C(=O)N1CCC[C@H]1C(=O)N1CCC[C@H]1C(=O)N[C@@H](CO)C(N)=O [Compound 115] ({Isobutyryl(2-(3-CN-5-F-Ph))-βAla}-[β3hD]GTFTSDYSI[Aib]LDKIAQK([AEEA-AEEA-γGlu-C20 diacid])AFVQWLIAGGPSSGAPPPS-NH2)
EC50 (GLP-1 receptor [1]): > 1000 nM | EC50 (GIP receptor [2]): 100 to 1000 nM | Emax (GIP receptor [2]): 111% | EC50 (GIP receptor [3]): > 1000 nM | EC50 (GLP-1 receptor [4]): 1 to 10 nM | Emax (GLP-1 receptor [4]): 120%

CC[C@H](C)[C@H](NC(=O)[C@H](CC(C)C)NC(=O)[C@H](Cc1c[nH]c2ccccc12)NC(=O)[C@H](CCC(N)=O)NC(=O)[C@@H](NC(=O)[C@H](Cc1ccccc1)NC(=O)[C@H](C)NC(=O)[C@H](CCCCNC(=O)COCCOCCNC(=O)COCCOCCNC(=O)CC[C@H](NC(=O)CCCCCCCCCCCCCCCCCCC(=O)O)C(=O)O)NC(=O)[C@H](CCC(N)=O)NC(=O)[C@H](C)NC(=O)[C@@H](NC(=O)[C@H](CCCCN)NC(=O)[C@H](CC(=O)O)NC(=O)[C@H](CC(C)C)NC(=O)C(C)(C)NC(=O)[C@@H](NC(=O)[C@H](CO)NC(=O)[C@H](Cc1ccc(O)cc1)NC(=O)[C@H](CC(=O)O)NC(=O)[C@H](CO)NC(=O)[C@@H](NC(=O)[C@H](Cc1ccccc1)NC(=O)[C@@H](NC(=O)CNC(=O)C[C@H](CCC(=O)O)NC(=O)CCNC(=O)C(C)(C)c1cc(F)cc(C#N)c1)[C@@H](C)O)[C@@H](C)O)[C@@H](C)CC)[C@@H](C)CC)C(C)C)C(=O)N[C@@H](C)C(=O)NCC(=O)NCC(=O)N1CCC[C@H]1C(=O)N[C@@H](CO)C(=O)N[C@@H](CO)C(=O)NCC(=O)N[C@@H](C)C(=O)N1CCC[C@H]1C(=O)N1CCC[C@H]1C(=O)N1CCC[C@H]1C(=O)N[C@@H](CO)C(N)=O [Compound 116] ({Isobutyryl(2-(3-CN-5-F-Ph))-βAla}-[β3hE]GTFTSDYSI[Aib]LDKIAQK([AEEA-AEEA-γGlu-C20 diacid])AFVQWLIAGGPSSGAPPPS-NH2)
EC50 (GLP-1 receptor [1]): > 1000 nM | EC50 (GIP receptor [2]): 100 to 1000 nM | Emax (GIP receptor [2]): 66% | EC50 (GIP receptor [3]): > 1000 nM | EC50 (GLP-1 receptor [4]): 10 to 100 nM | Emax (GLP-1 receptor [4]): 94%

CC[C@H](C)[C@H](NC(=O)[C@H](CC(C)C)NC(=O)[C@H](Cc1c[nH]c2ccccc12)NC(=O)[C@H](CCC(N)=O)NC(=O)[C@@H](NC(=O)[C@H](Cc1ccccc1)NC(=O)[C@H](C)NC(=O)[C@H](CCCCNC(=O)COCCOCCNC(=O)COCCOCCNC(=O)CC[C@H](NC(=O)CCCCCCCCCCCCCCCCCCC(=O)O)C(=O)O)NC(=O)[C@H](CCC(N)=O)NC(=O)[C@H](C)NC(=O)[C@@H](NC(=O)[C@H](CCCCN)NC(=O)[C@H](CC(=O)O)NC(=O)[C@H](CC(C)C)NC(=O)C(C)(C)NC(=O)[C@@H](NC(=O)[C@H](CO)NC(=O)[C@H](Cc1ccc(O)cc1)NC(=O)[C@H](CC(=O)O)NC(=O)[C@H](CO)NC(=O)[C@@H](NC(=O)[C@H](Cc1ccccc1)NC(=O)[C@@H](NC(=O)CNC(=O)[C@H](CCC(=O)O)NC(=O)CCNC(=O)C(C)(C)c1cc(O)cc(F)c1)[C@@H](C)O)[C@@H](C)O)[C@@H](C)CC)[C@@H](C)CC)C(C)C)C(=O)N[C@@H](C)C(=O)NCC(=O)NCC(=O)N1CCC[C@H]1C(=O)N[C@@H](CO)C(=O)N[C@@H](CO)C(=O)NCC(=O)N[C@@H](C)C(=O)N1CCC[C@H]1C(=O)N1CCC[C@H]1C(=O)N1CCC[C@H]1C(=O)N[C@@H](CO)C(N)=O [Compound 117] ({X38-βAla}-EGTFTSDYSI[Aib]LDKIAQK([AEEA-AEEA-γGlu-C20 diacid])AFVQWLIAGGPSSGAPPPS-NH2)
EC50 (GLP-1 receptor [1]): > 1000 nM | EC50 (GIP receptor [2]): 1 to 10 nM | Emax (GIP receptor [2]): 100% | EC50 (GIP receptor [3]): > 1000 nM | EC50 (GLP-1 receptor [4]): 0.1 to 1 nM | Emax (GLP-1 receptor [4]): 96%

CC[C@H](C)[C@H](NC(=O)[C@H](CC(C)C)NC(=O)[C@H](Cc1c[nH]c2ccccc12)NC(=O)[C@H](CCC(N)=O)NC(=O)[C@@H](NC(=O)[C@H](Cc1ccccc1)NC(=O)[C@H](C)NC(=O)[C@H](CCCCNC(=O)COCCOCCNC(=O)COCCOCCNC(=O)CC[C@H](NC(=O)CCCCCCCCCCCCCCCCCCC(=O)O)C(=O)O)NC(=O)[C@H](CCC(N)=O)NC(=O)[C@H](C)NC(=O)[C@@H](NC(=O)[C@H](CCCCN)NC(=O)[C@H](CC(=O)O)NC(=O)[C@H](CC(C)C)NC(=O)C(C)(C)NC(=O)[C@@H](NC(=O)[C@H](CO)NC(=O)[C@H](Cc1ccc(O)cc1)NC(=O)[C@H](CC(=O)O)NC(=O)[C@H](CO)NC(=O)[C@@H](NC(=O)[C@H](Cc1ccccc1)NC(=O)[C@@H](NC(=O)CNC(=O)[C@H](CCC(=O)O)NC(=O)CCNC(=O)C(C)(C)c1cc(F)cc(OC)c1)[C@@H](C)O)[C@@H](C)O)[C@@H](C)CC)[C@@H](C)CC)C(C)C)C(=O)N[C@@H](C)C(=O)NCC(=O)NCC(=O)N1CCC[C@H]1C(=O)N[C@@H](CO)C(=O)N[C@@H](CO)C(=O)NCC(=O)N[C@@H](C)C(=O)N1CCC[C@H]1C(=O)N1CCC[C@H]1C(=O)N1CCC[C@H]1C(=O)N[C@@H](CO)C(N)=O [Compound 118] ({X71-βAla}-EGTFTSDYSI[Aib]LDKIAQK([AEEA-AEEA-γGlu-C20 diacid])AFVQWLIAGGPSSGAPPPS-NH2)
EC50 (GLP-1 receptor [1]): > 1000 nM | EC50 (GIP receptor [2]): 10 to 100 nM | Emax (GIP receptor [2]): 105% | EC50 (GIP receptor [3]): > 1000 nM | EC50 (GLP-1 receptor [4]): 1 to 10 nM | Emax (GLP-1 receptor [4]): 103%

CC[C@H](C)[C@H](NC(=O)[C@H](CC(C)C)NC(=O)[C@H](Cc1c[nH]c2ccccc12)NC(=O)[C@H](CCC(N)=O)NC(=O)[C@@H](NC(=O)[C@H](Cc1ccccc1)NC(=O)[C@H](C)NC(=O)[C@H](CCCCNC(=O)COCCOCCNC(=O)COCCOCCNC(=O)CC[C@H](NC(=O)CCCCCCCCCCCCCCCCCCC(=O)O)C(=O)O)NC(=O)[C@H](CCC(N)=O)NC(=O)[C@H](C)NC(=O)[C@@H](NC(=O)[C@H](CCCCN)NC(=O)[C@H](CC(=O)O)NC(=O)[C@H](CC(C)C)NC(=O)C(C)(C)NC(=O)[C@@H](NC(=O)[C@H](CO)NC(=O)[C@H](Cc1ccc(O)cc1)NC(=O)[C@H](CC(=O)O)NC(=O)[C@H](CO)NC(=O)[C@@H](NC(=O)[C@H](Cc1ccccc1)NC(=O)[C@@H](NC(=O)CNC(=O)[C@H](CCC(=O)O)NC(=O)CCNC(=O)C(C)(C)c1cc(F)cc(C(F)(F)F)c1)[C@@H](C)O)[C@@H](C)O)[C@@H](C)CC)[C@@H](C)CC)C(C)C)C(=O)N[C@@H](C)C(=O)NCC(=O)NCC(=O)N1CCC[C@H]1C(=O)N[C@@H](CO)C(=O)N[C@@H](CO)C(=O)NCC(=O)N[C@@H](C)C(=O)N1CCC[C@H]1C(=O)N1CCC[C@H]1C(=O)N1CCC[C@H]1C(=O)N[C@@H](CO)C(N)=O [Compound 119] ({X74-βAla}-EGTFTSDYSI[Aib]LDKIAQK([AEEA-AEEA-γGlu-C20 diacid])AFVQWLIAGGPSSGAPPPS-NH2)
EC50 (GLP-1 receptor [1]): > 1000 nM | EC50 (GIP receptor [2]): 10 to 100 nM | Emax (GIP receptor [2]): 99% | EC50 (GIP receptor [3]): > 1000 nM | EC50 (GLP-1 receptor [4]): 1 to 10 nM | Emax (GLP-1 receptor [4]): 102%
